Results from US20040006103A1, “Use of chloroquine, hydroxychloroquine and 4 amino-quinolinic derivatives to obtain a drug for the anti retroviral therapy, active towards HIV sensitive strains and towards HIV strains which are resistant to both nucleosidic and non-nucleosidic reverse transcriptase inhibitors and to proteases …” (VALPHARMA S.A., priority 2002, published 2004).

Assays:
[1] = system: HIV-1 clinical isolated, characterised by mutations in the RT gene inducing geno-phenotypic resistance to ABC; assay: p24 production susceptibility test (ACTG protocol), Table 5; format: cell-based; conditions: PBMC, ratio to HIV-IIIB
Source text: (§1) For the phenotype of the nucleosidic, non-nucleosidic and proteases inhibitors was utilised a method which consider the use of human PBMC and the protocol standardised by the AIDS Clinical Trials Group, after verifying the genotype by sequence analysis.
(§2) In order to assay in vitro the susceptibility to chloroquine and hydroxychloroquine of the viral strains, it was used the protocol of the ACTG which is characterised by the measure, of the production of antigen p24 in strongly infected cells.
(§3) The susceptibility of the viral strains to chemotherapics was determined in cell cultures, prepared in 96 wells microplates, using, for the infection, 0.1 MOI.
(§4) The supernatant of the infected cultures (either in absence or in presence of different concentrations of chemotherapic) were tested for the production of p24 after 7 days, using an ELISA test which is commercially available.
(§5) The concentrations of chloroquine and hydroxychloroquine tested ranged from 0.5 to 15 uM. At the same time non-infected cells were incubated with concentrations of chloroquine and hydroxychloroquine ranging from 0 to 50 uM to evaluate the toxicity of the compound.
(§6) After 4 day from the infection, half the cellular medium was replaced with a medium containing the corresponding dilution of chloroquine and hydroxychloroquine. The percentage of inhibition of the HIV replication, induced by chloroquine and hydroxychloroquine, was determined, after 7 day from the infection, comparing the levels of p24 of this cultures and that of the control, infected and not treated with chloroquine and hydroxychloroquine.
(§7) Therefore, the E.C.50 of chloroquine and hydroxychloroquine expresses the concentration of chemotherapic that inhibits the 50% of production of p24 and the values were calculated using linear and non linear regression analysis (the significativity for the non linear regression was R^2>0.95).
(§8) In the same experimental conditions and in the same day, but with similar concentrations of chloroquine and hydroxychloroquine, it was evaluated the vitality of the infect cell cultures, and this was expressed as I.C.50.
(§9) I.C.50 (Inhibitory Concentration) indicates the concentration of the chemotherapic agent inhibiting the vitality of the cell cultures at a rate of 50%, when there is not infection.

[2] = system: HIV-1 strains geno-phenotypically resistant to EFV; assay: p24 production susceptibility test, Table 7, MT-2 cells; format: cell-based; conditions: MT-2, ratio to HIV-IIIB
Source text: as §1, §2, §3, §4, §5, §6, §7, §8, §9

[3] = system: HIV-1 strains geno-phenotypically resistant to EFV; assay: as above; format: cell-based; conditions: ratio to HIV-IIIB
[4] = system: HIV-1 clinical isolated, characterised by mutations in the protease gene inducing geno-phenotypic resistance to IDV; assay: p24 production susceptibility test (ACTG protocol), Table 9; format: cell-based; conditions: PBMC, ratio to HIV-IIIB
Source text: as §1, §2, §3, §4, §5, §6, §7, §8, §9

HIV = conditions: 16 weeks, cited from earlier work
[5] = system: HIV clinical isolated, characterised by mutations in the RT gene inducing geno-phenotypic resistance to AZT; assay: p24 production susceptibility test (ACTG protocol), Table 1; format: cell-based, HIV-1; conditions: PBMC, ratio to HIV-IIIB
Source text: as §1, §2, §3, §4, §5, §6, §7, §8, §9

[6] = system: HIV clinical isolated, characterised by mutations in the RT gene inducing geno-phenotypic resistance to ddI; assay: p24 production susceptibility test (ACTG protocol), Table 2; format: cell-based, HIV-1; conditions: PBMC, ratio to HIV-IIIB
Source text: as §1, §2, §3, §4, §5, §6, §7, §8, §9

[7] = system: HIV-1 strains geno-phenotypically resistant to NVP; assay: p24 production susceptibility test, Table 6, MT-2 cells; format: cell-based; conditions: ratio to HIV-IIIB
[8] = system: HIV-1 strains geno-phenotypically resistant to NVP; assay: as above; format: cell-based; conditions: MT-2, ratio to HIV-IIIB
Source text: as §1, §2, §3, §4, §5, §6, §7, §8, §9

[9] = system: HIV-1 clinical isolated, characterised by mutations in the protease gene inducing geno-phenotypic resistance to SQV; assay: p24 production susceptibility test (ACTG protocol), Table 8; format: cell-based; conditions: PBMC, ratio to HIV-IIIB
Source text: as §1, §2, §3, §4, §5, §6, §7, §8, §9

[10] = system: HIV-1 clinical isolated, characterised by mutations on the protease gene inducing geno-phenotypic resistance to NFV; assay: p24 production susceptibility test, Table 10, H-9 cells; format: cell-based; conditions: H-9, ratio to HIV-IIIB
Source text: as §1, §2, §3, §4, §5, §6, §7, §8, §9

[11] = system: HIV-1 clinical isolated, characterised by mutations on the protease gene inducing geno-phenotypic resistance to NFV; assay: p24 production susceptibility test (ACTG protocol), Table 10, PBMC; format: cell-based; conditions: ratio to HIV-IIIB
Source text: as §1, §2, §3, §4, §5, §6, §7, §8, §9

[12] = system: HIV-1 clinical isolated, characterised by mutations in the RT gene inducing geno-phenotypic resistance to d4T; assay: p24 production susceptibility test (ACTG protocol), Table 4; format: cell-based; conditions: PBMC, ratio to HIV-IIIB
Source text: as §1, §2, §3, §4, §5, §6, §7, §8, §9

Nc1nc(NC2CC2)c2ncn([C@H]3C=C[C@@H](CO)C3)c2n1 [ABC, Abacavir]
Fen. ABC (fold) ([1]; Gen. K65R L74V M184V): 10X fold
Fen. ABC (fold) ([1]; Gen. K65R S68G F77L Y115F Q151M M184V): 40X fold
Fen. ABC (fold) ([1]; Gen. L74V M184F): 10X fold
Fen. ABC (fold) ([1]; Gen. L74V Y115F M184V): 10X fold
Fen. ABC (fold) ([1]; Gen. M41L D67N M184V L210W T215Y): 10X fold

O=C1Nc2ccc(Cl)cc2[C@@](C#CC2CC2)(C(F)(F)F)O1 [EFV, Efavirenz]
Fen. EFV (fold) ([2]; Gen. K101D K103N): >80X fold
Fen. EFV (fold) ([2]; Gen. K103N Y181C): >80X fold
Fen. EFV (fold) ([2]; Gen. L100I K103N): >80X fold
Fen. EFV (fold) ([3]; Gen. K103N V108D): >80X fold
Fen. EFV (fold) ([3]; Gen. K103N): >80X fold
Fen. EFV (fold) ([3]; Gen. Y181C): 20X fold

CC(C)(C)NC(=O)[C@@H]1CN(Cc2cccnc2)CCN1C[C@@H](O)C[C@@H](Cc1ccccc1)C(=O)N[C@H]1c2ccccc2C[C@H]1O [IDV, Indinavir]
Fen. IDV (fold) ([4]; Gen. G48V V82A): >80X fold
Fen. IDV (fold) ([4]; Gen. I84V L90M): 20X fold
Fen. IDV (fold) ([4]; Gen. K20R E35D M36I I54V V82T): 10X fold
Fen. IDV (fold) ([4]; Gen. L10R M46I L63P V82T): 10X fold
Fen. IDV (fold) ([4]; Gen. V82F L90M): >80X fold

Cc1cn([C@H]2C[C@H](N=[N+]=[N-])[C@@H](CO)O2)c(=O)[nH]c1=O [AZT, Zidovudine]
negative events (HIV; hydroxychloroquine 800 mg/day, AZT 500 mg/day): no negative events were observed
patients with an increase of the plasmatic viremia at the end of the treatment (HIV; AZT 500 mg/day (n=37)): 8 patients
Fen AZT (fold) ([5]; Gen. D67N K70R T215F K219Q): 20X fold
Fen AZT (fold) ([5]; Gen. D 67 Ns K 70N T215F K219Q): >80X fold
Fen AZT (fold) ([5]; Gen. K70R T215F K219Q): 20X fold
Fen AZT (fold) ([5]; Gen. M41I M184V L210W R221K T215Y): 20X fold
Fen AZT (fold) ([5]; Gen. M41I T215Y): 40X fold
Fen AZT (fold) ([5]; Gen. M41L D67N K70RM 184V T215F): >80X fold
Fen AZT (fold) ([5]; Gen. M41LD 76N K70R T215Y): >80X fold
Fen. AZT (fold) ([6]; Gen D67N K70R M184V T215Y): 40X fold
Fen. AZT (fold) ([6]; Gen D67N K70R T215F K70R): >80X fold
Fen. AZT (fold) ([6]; Gen K70R T215F K219Q): 20X fold
Fen. AZT (fold) ([6]; Gen M4IL M184V L210W R211KL 214F T215Y): 20X fold
Fen. AZT (fold) ([6]; Gen M41I T215F): 40X fold
Fen. AZT (fold) ([6]; Gen M41L D67N K70R M184V T215Y): >80X fold
Fen. AZT (fold) ([6]; Gen M41L D67N K70R T215Y): >80X fold

Cc1ccnc2c1NC(=O)c1cccnc1N2C1CC1 [NVP, Nevirapine]
Fen. NVP (fold) ([7]; Gen. K103N): >80X fold
Fen. NVP (fold) ([7]; Gen. Y181C): >80X fold
Fen. NVP (fold) ([8]; Gen. G190E): >80X fold
Fen. NVP (fold) ([8]; Gen. V106A): >80X fold

CC(C)(C)NC(=O)[C@@H]1C[C@@H]2CCCC[C@@H]2CN1C[C@@H](O)[C@H](Cc1ccccc1)NC(=O)[C@H](CC(N)=O)NC(=O)c1ccc2ccccc2n1 [SQV, Saquinavir]
Fen. SQV (fold) ([9]; Gen. G48V I84V A74V L90M): 40X fold
Fen. SQV (fold) ([9]; Gen. G48V V82A): >80X fold
Fen. SQV (fold) ([9]; Gen. I84V L90M): >80X fold
Fen. SQV (fold) ([9]; Gen. M46I G48V L63P L90M): 20X fold
Fen. SQV (fold) ([9]; Gen. V82A L90M): 20X fold

Cc1c(O)cccc1C(=O)N[C@@H](CSc1ccccc1)[C@H](O)CN1C[C@H]2CCCC[C@H]2C[C@H]1C(=O)NC(C)(C)C [NFV, Nelfinavir]
Fen. NFV (fold) ([10]; Gen. D30N): 30X fold
Fen. NFV (fold) ([10]; Gen. V82A): 20X fold
Fen. NFV (fold) ([11]; Gen. D30N A71V): 30X fold
Fen. NFV (fold) ([11]; Gen. D30N M46V A71V): 30X fold
Fen. NFV (fold) ([11]; Gen. G48V V92A): >80X fold
Fen. NFV (fold) ([11]; Gen. V82F L90M): >80X fold

Cc1cn([C@H]2C=C[C@@H](CO)O2)c(=O)[nH]c1=O [D4T, Stavudine]
Fen. D4T (fold) ([12]; Gen. K65R F77L Y115F Q151M M184V): 40X fold
Fen. D4T (fold) ([12]; Gen. K65R F116Y Q151M): 40X fold
Fen. D4T (fold) ([12]; Gen. M41I T69SSS T215Y): 10X fold
Fen. D4T (fold) ([12]; Gen. T69SSS T215Y): 10X fold
Fen. D4T (fold) ([12]; Gen. V75I F77L F116Y Q151M): 20X fold
